{"source": "ChEMBL document CHEMBL5634091", "about": "“Cantharidin analogue alleviates dextran sulfate sodium-induced colitis in mice by inhibiting the activation of NF-κB signaling” (Eur J Med Chem, 2023)", "key": {"Mus musculus [1]": {"tested_on": "Mus musculus", "experiment": "Anti-inflammatory activity in C57BL/6 mouse model of DSS-induced acute ulcerative colitis assessed as reduction in hyperemia at 100 to 300 mg/kg, po administered once a day for 7 days by H and E staining based analysis", "type": "functional, organism-based", "conditions": "dose 100-300 mg/kg, time 7.0 day"}, "[2]": {"biological_target": "T1, NF-kappa-B inhibitor alpha (Homo sapiens) (UniProt P25963)", "T1 sequence (whole entry)": "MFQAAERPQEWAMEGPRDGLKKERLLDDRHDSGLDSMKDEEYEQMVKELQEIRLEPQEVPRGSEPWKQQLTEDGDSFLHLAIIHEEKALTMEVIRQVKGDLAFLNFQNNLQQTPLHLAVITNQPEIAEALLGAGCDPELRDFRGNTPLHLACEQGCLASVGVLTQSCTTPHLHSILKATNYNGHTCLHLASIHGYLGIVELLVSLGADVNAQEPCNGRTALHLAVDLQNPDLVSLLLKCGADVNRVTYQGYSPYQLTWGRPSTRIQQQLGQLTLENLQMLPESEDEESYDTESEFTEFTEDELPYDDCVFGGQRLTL", "experiment": "Inhibition of proteasomal degradation of IkappaBalpha in TNF-alpha induced human DLD-1 cells assessed as increase in IkappaBalpha protein expression at 12.5 to 50 uM preincubated for 4 hrs and followed TNF-alpha stimulation and measured after 10 mins by Western blot analysis", "type": "cell-based", "conditions": "dose 12.5-50 µM, time 250.0 min"}, "DLD-1 [3]": {"tested_on": "DLD-1", "experiment": "Effect on IKK protein expression in TNF-alpha stimulated human DLD-1 cells at 12.5 to 50 uM preincubated for 4 hrs and followed TNF-alpha stimulation and measured after 10 mins by Western blot analysis", "type": "functional, cell-based", "conditions": "dose 12.5-50 µM, time 250.0 min"}, "HCT-116 [4]": {"tested_on": "HCT-116", "experiment": "Inhibition of TNF-alpha induced NF-kB activation in human HCT-116 cells assessed as decrease in phosphorylated IKK protein expression preincubated for 4 hrs and followed TNF-alpha stimulation and measured after 10 mins by Western blot analysis", "type": "cell-based", "conditions": "dose 12.5-50 µM, time 250.0 min"}, "DLD-1 [5]": {"tested_on": "DLD-1", "experiment": "Inhibition of TNF-alpha induced NF-kB activation in human DLD-1 cells assessed as decrease in phosphorylated p65 protein expression preincubated for 4 hrs and followed TNF-alpha stimulation and measured after 10 mins by Western blot analysis", "type": "cell-based", "conditions": "dose 12.5-50 µM, time 250.0 min"}, "HCT-116 [6]": {"tested_on": "HCT-116", "experiment": "Upregulation of ERK protein expression in TNF-alpha stimulated human HCT-116 cells at 50 uM preincubated for 4 hrs and followed TNF-alpha stimulation and measured after 10 mins by Western blot analysis", "type": "functional, cell-based", "conditions": "time 250.0 min"}, "Mus musculus [7]": {"tested_on": "Mus musculus", "experiment": "Anti-inflammatory activity in po dosed C57BL/6 mouse model of DSS-induced acute ulcerative colitis assessed as reduction in COX2 mRNA expression in colon administered once a day for 7 days by RT-PCR analysis", "type": "functional, organism-based", "conditions": "dose 100-300 mg/kg, time 7.0 day"}, "[8]": {"experiment": "Cytotoxicity against human HCT-116 cells assessed as inhibition in cell proliferation", "type": "toxicity, cell-based"}, "Mus musculus [9]": {"tested_on": "Mus musculus", "experiment": "Anti-inflammatory activity in po dosed C57BL/6 mouse model of DSS-induced acute ulcerative colitis assessed as decrease in TNF-alpha expression in serum administered once a day for 7 days by ELISA", "type": "functional, organism-based", "conditions": "dose 100-300 mg/kg, time 7.0 day"}, "DLD-1 [10]": {"tested_on": "DLD-1", "experiment": "Activation of MAPK signaling pathway in TNF-alpha stimulated human DLD-1 cells assessed as increase in phospho-JNK protein expression at 50 uM preincubated for 4 hrs and followed TNF-alpha stimulation and measured after 10 mins by Western blot analysis", "type": "cell-based", "conditions": "filed as activator, time 250.0 min"}, "Mus musculus [11]": {"tested_on": "Mus musculus", "experiment": "Anti-inflammatory activity in C57BL/6 mouse model of DSS-induced acute ulcerative colitis assessed as increase in colon length at 100 to 300 mg/kg, po administered once a day for 7 days", "type": "functional, organism-based", "conditions": "dose 100-300 mg/kg, time 7.0 day"}, "DLD-1 [12]": {"tested_on": "DLD-1", "experiment": "Inhibition of TNF-alpha-induced NF-kappaB nuclear translocation in human DLD-1 cells preincubated for 4 hrs followed by TNF-alpha stimulation and measured after 30 mins by immunofluorescence staining based laser scanning confocal microscopic analysis", "type": "cell-based", "conditions": "dose 25-50 µM, time 4.5 hrs"}, "HCT-116 [13]": {"tested_on": "HCT-116", "experiment": "Inhibition of TNF-alpha induced MAPK signaling pathway activation in human HCT-116 cells assessed as decrease in phospho-ERK protein expression at 6.25 uM preincubated for 4 hrs and followed TNF-alpha stimulation and measured after 10 mins by Western blot analysis", "type": "cell-based", "conditions": "time 250.0 min"}, "DLD-1 [14]": {"tested_on": "DLD-1", "experiment": "Cytotoxicity against human DLD-1 cells assessed as induction of stress response at 50 uM", "type": "toxicity, cell-based", "conditions": "dld-1, 50 µM"}, "HCT-116 [15]": {"tested_on": "HCT-116", "experiment": "Effect on NF-kappaB p65 protein expression in TNF-alpha stimulated human HCT-116 cells at 12.5 to 50 uM preincubated for 4 hrs and followed TNF-alpha stimulation and measured after 10 mins by Western blot analysis", "type": "functional, cell-based", "conditions": "dose 12.5-50 µM, time 250.0 min"}, "Mus musculus [16]": {"tested_on": "Mus musculus", "experiment": "Anti-inflammatory activity in po dosed C57BL/6 mouse model of DSS-induced acute ulcerative colitis assessed as reduction in IL-17A mRNA expression in colon administered once a day for 7 days by RT-PCR analysis", "type": "functional, organism-based", "conditions": "dose 100-300 mg/kg, time 7.0 day"}, "Mus musculus [17]": {"tested_on": "Mus musculus", "experiment": "Anti-inflammatory activity in C57BL/6 mouse model of DSS-induced acute ulcerative colitis assessed as reversal of DSS-induced weight loss at 100 to 300 mg/kg, po administered once a day for 7 days", "type": "functional, organism-based", "conditions": "dose 100-300 mg/kg, time 7.0 day"}, "HCT-116 [18]": {"tested_on": "HCT-116", "experiment": "Activation of MAPK signaling pathway in TNF-alpha stimulated human HCT-116 cells assessed as increase in phospho-ERK protein expression at 50 uM preincubated for 4 hrs and followed TNF-alpha stimulation and measured after 10 mins by Western blot analysis", "type": "cell-based", "conditions": "filed as activator, time 250.0 min"}, "DLD-1 [19]": {"tested_on": "DLD-1", "experiment": "Upregulation of JNK protein expression in TNF-alpha stimulated human DLD-1 cells at 50 uM preincubated for 4 hrs and followed TNF-alpha stimulation and measured after 10 mins by Western blot analysis", "type": "functional, cell-based", "conditions": "time 250.0 min"}, "HCT-116 [20]": {"tested_on": "HCT-116", "experiment": "Activation of MAPK signaling pathway in TNF-alpha stimulated human HCT-116 cells assessed as increase in phospho-JNK protein expression at 50 uM preincubated for 4 hrs and followed TNF-alpha stimulation and measured after 10 mins by Western blot analysis", "type": "cell-based", "conditions": "filed as activator, time 250.0 min"}, "HCT-116 [21]": {"tested_on": "HCT-116", "experiment": "Effect on p38 protein expression in TNF-alpha stimulated human HCT-116 cells at 6.25 to 50 uM preincubated for 4 hrs and followed TNF-alpha stimulation and measured after 10 mins by Western blot analysis", "type": "functional, cell-based", "conditions": "dose 6.25-50 µM, time 250.0 min"}, "DLD-1 [22]": {"tested_on": "DLD-1", "experiment": "Inhibition of TNF-alpha induced NF-kB activation in human DLD-1 cells assessed as decrease in phosphorylated IkappaBalpha protein expression preincubated for 4 hrs and followed TNF-alpha stimulation and measured after 10 mins by Western blot analysis", "type": "cell-based", "conditions": "dose 12.5-50 µM, time 250.0 min"}, "DLD-1 [23]": {"tested_on": "DLD-1", "experiment": "Inhibition of TNF-alpha induced NF-kB activation in human DLD-1 cells assessed as decrease in phosphorylated IKK protein expression preincubated for 4 hrs and followed TNF-alpha stimulation and measured after 10 mins by Western blot analysis", "type": "cell-based", "conditions": "dose 12.5-50 µM, time 250.0 min"}, "HCT-116 [24]": {"tested_on": "HCT-116", "experiment": "Inhibition of TNF-alpha induced activation of MAPK signaling pathway in human HCT-116 cells assessed as change in phosphorylated p38 level at 6.25 to 50 uM preincubated for 4 hrs and followed TNF-alpha stimulation and measured after 10 mins by Western blot analysis", "type": "cell-based", "conditions": "dose 6.25-50 µM, time 250.0 min"}, "HCT-116 [25]": {"tested_on": "HCT-116", "experiment": "Inhibition of TNF-alpha induced MAPK signaling pathway activation in human HCT-116 cells assessed as decrease in phospho-JNK protein expression at 6.25 uM preincubated for 4 hrs and followed TNF-alpha stimulation and measured after 10 mins by Western blot analysis", "type": "cell-based", "conditions": "time 250.0 min"}, "DLD-1 [26]": {"tested_on": "DLD-1", "experiment": "Inhibition of TNF-alpha induced activation of MAPK signaling pathway in human DLD-1 cells assessed as change in phosphorylated p38 level at 6.25 to 50 uM preincubated for 4 hrs and followed TNF-alpha stimulation and measured after 10 mins by Western blot analysis", "type": "cell-based", "conditions": "dose 6.25-50 µM, time 250.0 min"}}, "note": "pIC50: −log10 of the molar value. Calls of active or inactive are those of the source. The rule behind the calls is not given here.", "data": [{"smiles": "COC(=O)C1=C(C(=O)OC)C2OC1CC2C#Cc1ccc(C)cc1", "note": "(stereo unspecified)", "values": [{"measurement": "Activity", "setting": "Mus musculus [1]", "value": "Active"}, {"measurement": "inhibition", "setting": "[2]", "value": "Active"}, {"measurement": "Activity", "setting": "DLD-1 [3]", "value": "inactive"}, {"measurement": "inhibition", "setting": "HCT-116 [4]", "value": "Dose-Dependent Effect"}, {"measurement": "inhibition", "setting": "DLD-1 [5]", "value": "Dose-Dependent Effect"}, {"measurement": "Activity", "setting": "HCT-116 [6]", "value": "Active"}, {"measurement": "Activity", "setting": "Mus musculus [7]", "value": "Dose-Dependent Effect"}, {"measurement": "pIC50", "setting": "[8]", "value": 4.85}, {"measurement": "Activity", "setting": "Mus musculus [9]", "value": "Dose-Dependent Effect"}, {"measurement": "Activity", "setting": "DLD-1 [10]", "value": "Active"}, {"measurement": "Activity", "setting": "Mus musculus [11]", "value": "Active"}, {"measurement": "inhibition", "setting": "DLD-1 [12]", "value": "Dose-Dependent Effect"}, {"measurement": "inhibition", "setting": "HCT-116 [13]", "value": "Active"}, {"measurement": "Activity", "setting": "DLD-1 [14]", "value": "Toxic"}, {"measurement": "Activity", "setting": "HCT-116 [15]", "value": "inactive"}, {"measurement": "Activity", "setting": "Mus musculus [16]", "value": "Dose-Dependent Effect"}, {"measurement": "Activity", "setting": "Mus musculus [17]", "value": "Active"}, {"measurement": "Activity", "setting": "HCT-116 [18]", "value": "Active"}, {"measurement": "Activity", "setting": "DLD-1 [19]", "value": "Active"}, {"measurement": "Activity", "setting": "HCT-116 [20]", "value": "Active"}, {"measurement": "Activity", "setting": "HCT-116 [21]", "value": "inactive"}, {"measurement": "inhibition", "setting": "DLD-1 [22]", "value": "Dose-Dependent Effect"}, {"measurement": "inhibition", "setting": "DLD-1 [23]", "value": "Dose-Dependent Effect"}, {"measurement": "inhibition", "setting": "HCT-116 [24]", "value": "inactive"}, {"measurement": "inhibition", "setting": "HCT-116 [25]", "value": "Active"}, {"measurement": "inhibition", "setting": "DLD-1 [26]", "value": "inactive"}]}]}
